These results are taken from patent US7452905B2, “Phenylalanine derivatives” (Ajinomoto Co., Inc., priority 2000, dated 2008).

The test has as its target T1, integrin α4β7 (Homo sapiens, UniProt P13612+P26010).
T1 construct: lymphoma cell strain RPMI-8866 of human B cells, known to express integrin α4β7; endogenous in cells; host or cells: RPMI-8866
T1 sequence (P13612 34-1032): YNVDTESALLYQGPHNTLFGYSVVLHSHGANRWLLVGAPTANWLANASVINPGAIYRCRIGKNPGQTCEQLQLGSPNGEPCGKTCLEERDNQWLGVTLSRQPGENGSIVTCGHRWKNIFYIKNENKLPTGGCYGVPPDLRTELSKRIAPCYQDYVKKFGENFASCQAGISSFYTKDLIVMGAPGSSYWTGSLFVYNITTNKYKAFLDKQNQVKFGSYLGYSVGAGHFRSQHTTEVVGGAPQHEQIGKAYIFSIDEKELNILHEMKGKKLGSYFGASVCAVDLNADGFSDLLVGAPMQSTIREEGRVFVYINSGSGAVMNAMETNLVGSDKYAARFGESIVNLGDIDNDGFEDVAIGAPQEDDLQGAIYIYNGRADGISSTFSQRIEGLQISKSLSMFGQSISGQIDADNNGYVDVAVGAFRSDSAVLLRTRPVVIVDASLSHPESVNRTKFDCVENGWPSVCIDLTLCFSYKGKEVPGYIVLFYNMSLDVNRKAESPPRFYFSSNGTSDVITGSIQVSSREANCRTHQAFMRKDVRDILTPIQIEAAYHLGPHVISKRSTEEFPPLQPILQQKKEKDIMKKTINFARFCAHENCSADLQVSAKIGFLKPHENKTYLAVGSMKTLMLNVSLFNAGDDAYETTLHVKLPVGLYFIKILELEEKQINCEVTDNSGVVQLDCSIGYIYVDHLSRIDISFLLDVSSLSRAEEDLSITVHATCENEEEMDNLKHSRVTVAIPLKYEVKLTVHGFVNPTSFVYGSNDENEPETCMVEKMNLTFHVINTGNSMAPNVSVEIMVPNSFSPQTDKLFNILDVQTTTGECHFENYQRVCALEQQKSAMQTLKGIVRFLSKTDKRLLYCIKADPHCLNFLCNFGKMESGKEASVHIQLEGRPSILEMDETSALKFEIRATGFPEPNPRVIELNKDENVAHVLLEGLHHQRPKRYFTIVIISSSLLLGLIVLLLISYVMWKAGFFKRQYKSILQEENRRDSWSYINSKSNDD
T1 sequence (P26010 20-798): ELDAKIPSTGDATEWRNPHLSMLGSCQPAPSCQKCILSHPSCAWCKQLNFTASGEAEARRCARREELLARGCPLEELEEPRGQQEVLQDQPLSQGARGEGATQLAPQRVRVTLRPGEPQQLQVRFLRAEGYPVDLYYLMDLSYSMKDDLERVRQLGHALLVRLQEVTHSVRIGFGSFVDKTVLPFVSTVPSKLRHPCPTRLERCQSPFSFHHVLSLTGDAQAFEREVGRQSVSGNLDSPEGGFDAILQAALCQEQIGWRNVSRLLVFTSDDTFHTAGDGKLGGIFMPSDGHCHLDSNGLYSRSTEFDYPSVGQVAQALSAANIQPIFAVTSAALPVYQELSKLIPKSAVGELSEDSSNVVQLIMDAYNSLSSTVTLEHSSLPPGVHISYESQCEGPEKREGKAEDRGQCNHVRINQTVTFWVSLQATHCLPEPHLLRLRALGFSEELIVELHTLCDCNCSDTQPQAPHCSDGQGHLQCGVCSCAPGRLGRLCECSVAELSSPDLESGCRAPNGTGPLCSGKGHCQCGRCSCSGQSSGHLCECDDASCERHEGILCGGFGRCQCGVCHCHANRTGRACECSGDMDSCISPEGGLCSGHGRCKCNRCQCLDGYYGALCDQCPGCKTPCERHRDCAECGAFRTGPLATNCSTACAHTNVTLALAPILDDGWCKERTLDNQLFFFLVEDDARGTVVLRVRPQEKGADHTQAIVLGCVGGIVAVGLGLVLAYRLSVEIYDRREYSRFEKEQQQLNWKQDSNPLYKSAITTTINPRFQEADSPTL
Kind of test: VCAM antagonistic activity (VCAM-1/α4β7 binding assay), RPMI-8866 cells binding to VCAM-1. It counts as cell-based. The conditions noted are these: RPMI-8866 cells binding to recombinant human VCAM-1, binding buffer with 4 mM MnCl2; 50% binding inhibition; read-out: Antagonistic Activity IC50 α 4 β 7/VCAM. How it is done:
VCAM Antagonistic Activity (VCAM-1/α4β7 Binding Assay)
The capacity of a test substance antagonistic to the binding of lymphoma cell strain RPMI-8866 of human B cells, known to express integrin α4β7, to VCAM-1 was determined. 100 μl/well of a solution (500 ng/ml) of recombinant human VCAM-1 (R & D systems) solution diluted with buffer A (0.1 M NaHCO3, pH 9.6) was added to a micro titer plate having 96 wells (Nunc Maxisorp). After the incubation at 4° C. overnight, unbound VCAM-1 was removed by washing once with PBS. After completion of the washing, a buffer (buffer B) obtained by diluting Block Ace (Dainippon Pharmaceutical Co., Ltd.) with PBS to ¼ concentration was added in an amount of 150 μl/well. After the incubation at room temperature for 1 hour, buffer B was removed and the plate was washed with PBS once.
RPMI-8866 cells were incubated in Dulbecco modified Eagle medium containing 10 μg/ml of Calcein-AM (Wako Pure Chemical Industries, Ltd.) (SIGMA, hereinafter referred to as “DMEM”) at 37° C. for 30 minutes to label with fluorescence. The cells were again suspended in a binding buffer (20 mM HEPES, DMEM containing 0.1% BSA) containing 4 mM of MnCl2.
50 μl of a test substance of various concentrations obtained by the dilution with the binding buffer was added to the plate. Immediately thereafter, 50 μl (final volume: 100 μl/well) of the fluorescent RPMI-8866 cells (4×10^6 cells/ml) were added thereto, and they were incubated at room temperature for 30 minutes. After the shaking on a plate shaker (IKA MTS-4) at 800 rpm for 30 seconds, the solution was immediately removed to remove the unbound cells. The fluorescence quantity of the bound cells remaining in the wells was determined with a fluorescent plate reader (Wallac 1420 ARVO multi-label counter) (filter excitation wave length: 485 nm, emission wave length: 535 nm). The fluorescent strength thus obtained is proportional to the number of RPMI-8866 cells bound to VCAM-1 and remaining on the plate. The binding rate of each test material in various concentrations was determined while the fluorescent strength of the test material-free well was determined to be 100%. The concentration IC50 for the 50% binding inhibition was calculated.
Regarding `O=C(N[C@@H](Cc1ccc(N2C(=O)c3ccccc3C2=O)cc1)C(=O)O)c1c(Cl)cccc1Cl` [Example 1], the IC50 amounted to 9.7 nM.

With `Cc1ccc2c(c1)C(=O)N(c1ccc(C[C@H](NC(=O)c3c(Cl)cccc3Cl)C(=O)O)cc1)C2=O` [Example 6], the IC50 was found to be 11 nM. As for `O=C(N[C@@H](Cc1ccc(N2C(=O)c3ccc([N+](=O)[O-])cc3C2=O)cc1)C(=O)O)c1c(Cl)cccc1Cl` [Example 9], the figure is 24 nM. On to `O=C(N[C@@H](Cc1ccc(N2C(=O)Cc3ccccc3C2=O)cc1)C(=O)O)c1c(Cl)cccc1Cl` [Example 15], for which the IC50 turned out to be 34 nM. Consider `O=C(N[C@@H](Cc1ccc(N2C(=O)c3cccc4cccc(c34)C2=O)cc1)C(=O)O)c1c(Cl)cccc1Cl` [Example 16], for which the IC50 amounted to 21 nM. For `O=C(N[C@@H](Cc1ccc(N2Cc3ccccc3C2=O)cc1)C(=O)O)c1c(Cl)cccc1Cl` [Example 17] the value was 140 nM; for `O=C(N[C@@H](Cc1ccc(N2CC=CC2=O)cc1)C(=O)O)c1c(Cl)cccc1Cl` [Example 25], 160 nM. As for `O=C(N[C@@H](Cc1ccc(N2CC=CCC2=O)cc1)C(=O)O)c1c(Cl)cccc1Cl` [Example 26], the figure is 80 nM; as for `O=C(N[C@@H](Cc1ccc(N2CC=CCCC2=O)cc1)C(=O)O)c1c(Cl)cccc1Cl` [Example 27], 73 nM; as for `Cc1ccc(C)c2c1C(=O)N(c1ccc(C[C@H](NC(=O)c3c(Cl)cccc3Cl)C(=O)O)cc1)C2=O` [Example 30], 46 nM. `CN(C)C(=O)c1ccc2c(c1)C(=O)N(c1ccc(C[C@H](NC(=O)c3c(Cl)cccc3Cl)C(=O)O)cc1)C2=O` [Example 33]: the IC50 came to 8.9 nM. As for `O=C(N[C@@H](Cc1ccc(N2C(=O)C3=C(CCCC3)C2=O)cc1)C(=O)O)c1c(Cl)cccc1Cl` [Example 37], the figure is 5.8 nM; as for `O=C(N[C@@H](Cc1ccc(N2C(=O)C3=C(SCCS3)C2=O)cc1)C(=O)O)c1c(Cl)cccc1Cl` [Example 38], 13 nM. For `O=C(N[C@@H](Cc1ccc(N2C(=O)[C@@H]3CCCC[C@H]3C2=O)cc1)C(=O)O)c1c(Cl)cccc1Cl` [Example 40] the value was 18 nM.

Consider `O=C(N[C@@H](Cc1ccc(N2C(=O)[C@@H]3[C@H](C2=O)[C@@H]2C=C[C@H]3C2)cc1)C(=O)O)c1c(Cl)cccc1Cl` [Example 42], for which the IC50 is 21 nM. For `CC1CCC2C(=O)N(c3ccc(C[C@H](NC(=O)c4c(Cl)cccc4Cl)C(=O)O)cc3)C(=O)C2C1` (some centres unmarked) [Example 43] the value was 43 nM; for `O=C(N[C@@H](Cc1ccc(N2C(=O)[C@@H]3[C@H](C2=O)[C@@H]2C=C[C@H]3CC2)cc1)C(=O)O)c1c(Cl)cccc1Cl` [Example 44], 39 nM; for `O=C(N[C@@H](Cc1ccc(N2C(=O)[C@H]3CC=CC[C@H]3C2=O)cc1)C(=O)O)c1c(Cl)cccc1Cl` [Example 45], 19 nM. For `O=C(N[C@@H](Cc1ccc(N2C(=O)C3CC3C2=O)cc1)C(=O)O)c1c(Cl)cccc1Cl` (some centres unmarked) [Example 46] the value was 42 nM; for `O=C(N[C@@H](Cc1ccc(N2C(=O)[C@H]3CC[C@H](c4ccccc4)C[C@H]3C2=O)cc1)C(=O)O)c1c(Cl)cccc1Cl` [Example 47], 92 nM. As for `O=C(N[C@@H](Cc1ccc(N2C(=O)CC3(CCCC3)CC2=O)cc1)C(=O)O)c1c(Cl)cccc1Cl` [Example 48], the figure is 21 nM; as for `CC1(C)[C@H]2CC[C@]1(C)C(=O)N(c1ccc(C[C@H](NC(=O)c3c(Cl)cccc3Cl)C(=O)O)cc1)C2=O` [Example 49], 60 nM. In the case of `Cc1cccc2c1C(=O)N(c1ccc(C[C@H](NC(=O)c3c(Cl)cncc3Cl)C(=O)O)cc1)C2=O` [Example 59], the IC50 worked out at 10 nM.

With `Nc1cccc2c1C(=O)N(c1ccc(C[C@H](NC(=O)c3c(Cl)cccc3Cl)C(=O)O)cc1)C2=O` [Example 71], the IC50 was 230 nM. As for `CCOc1cccc2c1C(=O)N(c1ccc(C[C@H](NC(=O)c3c(Cl)cccc3Cl)C(=O)O)cc1)C2=O` [Example 73], the figure is 8.5 nM; as for `O=C(N[C@@H](Cc1ccc(N2C(=O)c3cccc(OCc4ccccc4)c3C2=O)cc1)C(=O)O)c1c(Cl)cccc1Cl` [Example 74], 110 nM; as for `CCCCOc1cccc2c1C(=O)N(c1ccc(C[C@H](NC(=O)c3c(Cl)cccc3Cl)C(=O)O)cc1)C2=O` [Example 75], 55 nM.

For `O=C(N[C@@H](Cc1ccc(N2C(=O)c3ccc(O)cc3C2=O)cc1)C(=O)O)c1c(Cl)cccc1Cl` [Example 77], the IC50 was determined as 73 nM. As for `COc1ccc2c(c1)C(=O)N(c1ccc(C[C@H](NC(=O)c3c(Cl)cccc3Cl)C(=O)O)cc1)C2=O` [Example 78], the figure is 42 nM; as for `CCOc1ccc2c(c1)C(=O)N(c1ccc(C[C@H](NC(=O)c3c(Cl)cccc3Cl)C(=O)O)cc1)C2=O` [Example 79], 86 nM; as for `O=C(N[C@@H](Cc1ccc(N2C(=O)c3ccc(OCc4ccccc4)cc3C2=O)cc1)C(=O)O)c1c(Cl)cccc1Cl` [Example 80], 80 nM. For `O=C(N[C@@H](Cc1ccc(N2C(=O)Cc3ccccc3CC2=O)cc1)C(=O)O)c1c(Cl)cccc1Cl` [Example 82] the value was 900 nM. For `Cc1cccc2c1C(=O)N(c1ccc(C[C@H](NC(=O)c3c(Cl)cc(-c4nnn[nH]4)cc3Cl)C(=O)O)cc1)C2=O` [Example 83, (2S)-2-(2,6-dichloro-4-tetrazolyl-benzoylamino)-3-[4-(4-methyl-1,3-dioxo-1,3-dihydroisoindole-2-yl)phenyl] Propionic Acid] the value was 0.55 nM; for `Cc1cccc2c1C(=O)N(c1ccc(C[C@H](NC(=O)c3c(Cl)cc(NS(C)(=O)=O)cc3Cl)C(=O)O)cc1)C2=O` [Example 84], 0.6 nM; for `CC(=O)C1Cc2ccccc2C(=O)N1c1ccc(C[C@H](NC(=O)c2c(Cl)cccc2Cl)C(=O)O)cc1` (some centres unmarked) [Example 86], 39 nM.
